We go through two molecules from patent US20050170052A1, “Water and feed preservative for animal uses” (priority 2004, published 2005).

The subject of series [1] is E. coli. Description: Biocidal effect of terpenes in organic preservative-free apple juice (Example 7). The settings on record: 250 ppm in unpasteurized apple juice, E. coli added, one week room temperature. It is filed as cell-based. The method, then:
To 100 ml of unpasteurized apple juice was added different concentration of terpenes varying from 0 to 250 ppm. After mixing, 0.5 ml of 1×10^6 cfu E. coli was added to each juice/terpene mixture and incubated at room temperature for a week. After incubation, 0.1 ml of each of the solutions was plated onto nutrient agar and incubated for 18 hours at 37° C. Results are expressed as cfu/ml and percent reduction as compared to control.

Series [2] concerns E. coli. The settings on record: cited from earlier work.
Series [3] is classed as physicochemical. The settings on record: buffer, 1000 ppm. The method, then: A solution containing 1000 ppm citral in distilled water was homogenized with a high speed homogenizer. This solution was stored in a closed glass bottle for four weeks. Concentration of citral remaining was determined by a gas chromatography. A standard curve was prepared with reagent grade citral to which b-ionone was used as internal standard. At the beginning of the study and weekly the concentration of citral was determined by plotting it on the standard curve.

The format of series [4] is physicochemical. The settings on record: buffer, 1000 ppm. The method, then:
A solution containing 1000 ppm citral in distilled water was homogenized with a high speed homogenizer. This solution was stored in a beaker covered with porous paper for a week. The concentration of citral remaining after a week was determined by a gas chromatography. A standard curve was prepared with reagent grade citral to which b-ionone was used as internal standard. At the beginning of the study and after a week the concentration of citral was determined by plotting it on the standard curve.
The source holds these as a separate data set.

Where two headings read alike, the source gives them in different places.

As for `CC(=O)/C=C/C1=C(C)CCCC1(C)C` [B-ionone], in the series with E. coli [1], the “% reduction” value stood at 100% and the cfu/ml is 0 cfu/ml.

With `CC(C)=CCCC(C)=CC=O` [Citral, citral], in the series on E. coli [2], the “citral concentration in growth media that reduced the concentration of E. coli” value is given as “more than 0.01%”. Further, the “citral concentration with bactericidal effect” value with E. coli [2] (growth media) is on record as 0.08%. Further, the “Percentage of citral remaining, Week 1” value in series [3] (1 week) turned out to be 32%; in series [4] (1 week), 21.5%. Besides, the “Percentage of citral remaining, Week 2” value in series [3] (2 week) is reported as 27%. The “Percentage of citral remaining, Week 4” value in series [3] (4 week) is given as 22%. Besides, the “Percentage of citral remaining, Day 1” value in series [3] (1 day) and in series [4] (1 day) was 100% each time. Also, the “% reduction” value in the series on E. coli [1] was 100%. This molecule registered a cfu/ml in the series with E. coli [1] of 0 cfu/ml.
